Columns and labels:
[1] = biological target: PDGFRα (Homo sapiens (Human), UniProt P16234); assay: PDGFRα kinase enzyme assay (Promega PDGFRα Kinase Enzyme System, ADP-Glo); assay type: biochemical; details: 11-point dose response, 10,000 nM to 0.169 nM, 150 uM ATP, BLQ = below limit of quantitation; for IC50: read-out: IC50 Values on PDGFRα Kinase Inhibition, IC50
In short: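 Read-out was ADP-Glo: remaining ATP depleted, ADP converted to luminescence and compared with a standard curve.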

[2] = test system: Oligodendrocyte progenitor cells (OPCs); assay: In vitro OPC differentiation assay, GPR17 expression (immunocytochemistry); details: 3 μM (10× concentration, final 0.3 μM); 72 hours; fold change over vehicle
Experimental: To assess the effects of the PDGFRα inhibitors on OPC differentiation, primary OPCs were cultured and exposed to compounds. The number of newly generated oligodendrocytes was assessed by monitoring GPR17 expression. GPR17 is preferentially expressed in actively differentiating oligodendrocytes, allowing them to be distinguished from precursors and more differentiated oligodendrocytes.
Cortices from postnatal day (P) 1-3 rats were dissected and collected into ice cold Hank's Balanced Salt Solution (HBSS). […] Briefly, the cortical cell suspension was centrifuged and washed with buffer (0.5% BSA in PBS) and labeled with Anti-A2B^5 MicroBeads (10 μL beads per 1×10^7 cells) for 15 minutes at 4° C. Following the incubation, cells were washed once with BSA buffer to remove unlabeled beads. A2B^5 positive cells were eluted on the column using the AutoMACS® (Miltenyi, as per manufacturer's protocol using “Possel-s” program). Eluted cells were further washed twice with OPC growth media. Cell counts were performed using Countess III cell counter (ThermoFisher; AMQAX2000) and cells were plated.
The plates were allowed to sit at room temperature for 15 minutes to ensure proper dispersion of cells in a well. The plates were then transferred to the incubator (37° C.; 5% CO2).
Cells were then incubated for 72 hours at 37° C., 5% CO2 before immunostaining for GPR17 marker expression.
Following 72 hours in culture, cells were fixed with 4% paraformaldehyde for 15 minutes and then washed three times in Dulbecco's phosphate buffered saline (DPBS). Prior to immunostaining, cells were treated with a blocking solution (10% normal goat serum containing 1% BSA and 0.1% Triton® X-100 in DPBS) for 15 minutes at room temperature. Primary antibody (anti-GPR17 at 1:2000; Origene TA811615) was applied to cells overnight at 4° C. in incubation solution containing 1% normal goat serum, 1% BSA, and 0.1% Triton X-100 in DPBS. […] The secondary antibody was applied in incubation solution for 2 hours at room temperature, protected from light.
The number of differentiated GPR17+ cells was normalized to the total nuclei count and percent differentiated GPR17+ cells were reported. Statistical analysis was done using one-way ANOVA with multiple comparisons and post-hoc Tukey test in GraphPad Prism (GraphPad Software).

Chain of PDGFRα (P16234 24-1089): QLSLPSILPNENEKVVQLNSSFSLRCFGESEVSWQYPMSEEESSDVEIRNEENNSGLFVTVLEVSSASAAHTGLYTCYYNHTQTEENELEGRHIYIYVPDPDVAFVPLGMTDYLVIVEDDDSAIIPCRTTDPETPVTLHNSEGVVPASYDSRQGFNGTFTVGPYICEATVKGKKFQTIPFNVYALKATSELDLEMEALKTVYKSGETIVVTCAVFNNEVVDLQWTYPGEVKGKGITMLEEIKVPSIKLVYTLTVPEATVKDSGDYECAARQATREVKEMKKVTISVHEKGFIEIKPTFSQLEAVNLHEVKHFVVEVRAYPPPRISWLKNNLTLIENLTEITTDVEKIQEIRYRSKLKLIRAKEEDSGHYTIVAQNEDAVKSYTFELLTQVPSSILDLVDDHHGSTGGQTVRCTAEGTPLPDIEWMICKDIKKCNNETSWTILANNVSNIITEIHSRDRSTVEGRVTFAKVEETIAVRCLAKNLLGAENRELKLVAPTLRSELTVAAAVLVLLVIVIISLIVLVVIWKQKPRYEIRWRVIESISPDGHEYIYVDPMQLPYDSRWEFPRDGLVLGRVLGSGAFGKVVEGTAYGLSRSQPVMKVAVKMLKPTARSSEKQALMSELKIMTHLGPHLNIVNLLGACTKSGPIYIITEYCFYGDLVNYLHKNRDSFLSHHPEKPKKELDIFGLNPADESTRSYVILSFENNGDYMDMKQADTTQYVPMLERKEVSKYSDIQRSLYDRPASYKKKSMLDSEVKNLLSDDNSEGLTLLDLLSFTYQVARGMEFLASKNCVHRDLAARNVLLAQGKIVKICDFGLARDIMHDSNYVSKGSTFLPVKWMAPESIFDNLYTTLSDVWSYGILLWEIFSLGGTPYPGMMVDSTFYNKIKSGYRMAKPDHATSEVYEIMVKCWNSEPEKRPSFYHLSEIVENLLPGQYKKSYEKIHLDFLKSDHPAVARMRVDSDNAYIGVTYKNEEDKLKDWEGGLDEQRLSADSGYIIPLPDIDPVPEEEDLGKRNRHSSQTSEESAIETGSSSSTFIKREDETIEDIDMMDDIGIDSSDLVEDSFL

Compound | IC50 [1] | GPR17 Fold Induction (Over Vehicle; 3 μM) [2] | IC50 Values on PDGFRα Kinase Inhibition, IC50 (nM) [1]
CC(C)(C)OC(=O)N1CCN(c2cnn3cc(-c4cncn4CCCN4CCOCC4)ccc23)CC1 [Compound 232, tert-butyl 4-(6-(1-(3-morpholinopropyl)-1H-imidazol-5-yl)pyrazolo[1,5-a]pyridin-3-yl)piperazine-1-carboxylate] | > 10000 nM | 1.03 | 
CC(C)(C)OC(=O)N1CCN(c2cnn3cc(-c4cnn5c4CCCC5)ccc23)CC1 [Compound 236, tert-butyl 4-(4,5,6,7-tetrahydro-[3,6′-bipyrazolo[1,5-a]pyridin]-3′-yl)piperazine-1-carboxylate] | 696 nM | 6.03 | 
Cn1nnc(-c2ccc3c(N4CCN(C(=O)OC(C)(C)C)CC4)cnn3c2)n1 [Compound 237, tert-butyl 4-(6-(2-methyl-2H-tetrazol-5-yl)pyrazolo[1,5-a]pyridin-3-yl)piperazine-1-carboxylate] | > 10000 nM | 0.95 | 
CC1CN(C(=O)OC(C)(C)C)CCN1c1cnn2cc(-c3cnn(C)c3)ccc12 (centres unmarked) [Compound 240, tert-butyl 3-methyl-4-(6-(1-methyl-1H-pyrazol-4-yl)pyrazolo[1,5-a]pyridin-3-yl)piperazine-1-carboxylate] | 9410 nM | 4.67 | 
CC(C)N(C)C(=O)N1CCN(c2cnn3cc(-c4cnn(C)c4)ccc23)CC1 [Compound 252, N-isopropyl-N-methyl-4-[6-(1-methyl-1H-pyrazol-4-yl)pyrazolo[1,5-a]pyridin-3-yl]piperazine-1-carboxamide] | 674 nM | 1.79 | 
COc1ccc(CN2CCN(c3cnn4cc(-c5cnn(C)c5)ccc34)CC2)cc1 [Compound 253, 3-[4-(4-methoxybenzyl)piperazin-1-yl]-6-(1-methyl-1H-pyrazol-4-yl)pyrazolo[1,5-a]pyridine] | > 10000 nM | 0.97 | 
Cn1cc(-c2ccc3c(N4CCN(c5ncc(C(F)(F)c6ccc(F)cc6)cn5)CC4)cnn3c2)cn1 [Compound 262, 3-(4-(5-(difluoro (4-fluorophenyl)methyl)pyrimidin-2-yl)piperazin-1-yl)-6-(1-methyl-1H-pyrazol-4-yl)pyrazolo[1,5-a]pyridine] | > 10000 nM | 2.61 | 
C[C@H](c1ccc(Cl)cc1)N(C)C(=O)N1CCN(c2cnn3cc(-c4cnn(C)c4)ccc23)CC1 [Compound 276, (R)—N-(1-(4-chlorophenyl)ethyl)-N-methyl-4-(6-(1-methyl-1H-pyrazol-4-yl)pyrazolo[1,5-a]pyridin-3-yl)piperazine-1-carboxamide] | 2700 nM | 2.11 | 
CN(Cc1ccc(Cl)cc1)C(=O)N1CCN(c2cnn3cc(-c4cnn(C)c4)ccc23)CC1 [Compound 278, N-(4-chlorobenzyl)-N-methyl-4-[6-(1-methyl-1H-pyrazol-4-yl)pyrazolo[1,5-a]pyridin-3-yl]piperazine-1-carboxamide] | 1400 nM | 6.13 | 
Cn1cc(-c2ccc3c(N4CCN(c5ncc(C(=O)C(F)(F)F)cn5)CC4)cnn3c2)cn1 [Compound 284, 2,2,2-trifluoro-1-(2-(4-(6-(1-methyl-1H-pyrazol-4-yl)pyrazolo[1,5-a]pyridin-3-yl)piperazin-1-yl)pyrimidin-5-yl)ethan-1-one] | > 10000 nM | 6.21 | 
Cn1cc(-c2ccc3c(N4CCN(c5ncc(C(O)C(F)(F)F)cn5)CC4)cnn3c2)cn1 (centres unmarked) [Compound 285, 2,2,2-trifluoro-1-(2-{4-[6-(1-methyl-1H-pyrazol-4-yl)pyrazolo[1,5-a]pyridin-3-yl]piperazin-1-yl}pyrimidin-5-yl)ethanol] | 7620 nM | 6.20 | 
CC(O)C(O)c1cnc(N2CCN(c3cnn4cc(-c5cnn(C)c5)ccc34)CC2)nc1 (centres unmarked) [Compound 286, 1-(2-(4-(6-(1-methyl-1H-pyrazol-4-yl)pyrazolo[1,5-a]pyridin-3-yl)piperazin-1-yl)pyrimidin-5-yl)propane-1,2-diol] | 1790 nM | 4.95 | 
CCC(O)c1cnc(N2CCN(c3cnn4cc(-c5cnn(C)c5)ccc34)CC2)nc1 (centres unmarked) [Compound 287, 1-(2-{4-[6-(1-methyl-1H-pyrazol-4-yl)pyrazolo[1,5-a]pyridin-3-yl]piperazin-1-yl}pyrimidin-5-yl)propan-1-ol] | 2470 nM | 6.48 | 
C[C@@H](NC(=O)N1CCN(c2cnn3cc(-c4cnn(C)c4)ccc23)CC1)c1ccc(C(F)(F)F)cc1 [Compound 288, 4-[6-(1-methyl-1H-pyrazol-4-yl)pyrazolo[1,5-a]pyridin-3-yl]-N-{(1R)-1-[4-(trifluoromethyl)phenyl]ethyl}piperazine-1-carboxamide] |  | 5.92 | BLQ
C[C@@H](OC(=O)N1CCN(c2cnn3cc(-c4cnn(C)c4)ccc23)CC1)c1ccncc1 [Compound 289, (R)-1-(pyridin-4-yl)ethyl 4-(6-(1-methyl-1H-pyrazol-4-yl)pyrazolo[1,5-a]pyridin-3-yl)piperazine-1-carboxylate] | 430 nM | 7.44 | 
[2H]C1([2H])N(C(=O)O[C@H](C)c2ccc(Cl)cc2)C([2H])([2H])C([2H])([2H])N(c2cnn3cc(-c4cnn(C)c4)ccc23)C1([2H])[2H] [Compound 290, (R)-1-(4-chlorophenyl)ethyl 4-(6-(1-methyl-1H-pyrazol-4-yl)pyrazolo[1,5-a]pyridin-3-yl)piperazine-1-carboxylate-2,2,3,3,5,5,6,6-d8] | 0.56 nM | 10.47 | 
Cn1cc(-c2ccc3c(N4CCN(S(=O)(=O)NCc5ccc(Cl)cc5)CC4)cnn3c2)cn1 [Compound 292, N-(4-chlorobenzyl)-4-(6-(1-methyl-1H-pyrazol-4-yl)pyrazolo[1,5-a]pyridin-3-yl)piperazine-1-sulfonamide] | 50 nM | 9.78 | 
C[C@@H](NS(=O)(=O)N1CCN(c2cnn3cc(-c4cnn(C)c4)ccc23)CC1)c1ccc(Cl)cc1 [Compound 293, (R)-N-(1-(4-chlorophenyl)ethyl)-4-(6-(1-methyl-1H-pyrazol-4-yl)pyrazolo[1,5-a]pyridin-3-yl)piperazine-1-sulfonamide] | 5250 nM | 7.29 | 
Cn1cc(-c2ccc3c(N4CCN(S(=O)(=O)NCc5ccc(C(F)(F)F)cc5)CC4)cnn3c2)cn1 [Compound 294, 4-(6-(1-methyl-1H-pyrazol-4-yl)pyrazolo[1,5-a]pyridin-3-yl)-N-(4-(trifluoromethyl)benzyl)piperazine-1-sulfonamide] | 5.96 nM | 9.58 | 

Next, values leading:

IC50 [1] | GPR17 Fold Induction (Over Vehicle; 3 μM) [2] | IC50 Values on PDGFRα Kinase Inhibition, IC50 (nM) [1] | Compound
> 10000 nM | 1.88 |  | Cn1cc(-c2ccc3c(N4CCN(c5ncnn5Cc5ccccc5)CC4)cnn3c2)cn1 [Compound 239, 3-(4-(1-benzyl-1H-1,2,4-triazol-5-yl)piperazin-1-yl)-6-(1-methyl-1H-pyrazol-4-yl)pyrazolo[1,5-a]pyridine]
> 10000 nM | 2.24 |  | Cn1cc(-c2ccc3c(C4=CCC(CCc5ccccc5)CC4)cnn3c2)cn1 (centres unmarked) [Compound 242, 6-(1-methyl-1H-pyrazol-4-yl)-3-(4-phenethylcyclohex-1-en-1-yl)pyrazolo[1,5-a]pyridine]
> 10000 nM | 0.62 |  | Cn1cc(-c2ccc3c(C4=CCC(COc5ccccc5)CC4)cnn3c2)cn1 (centres unmarked) [Compound 243, 1-methyl-4-{3-[4-(phenoxymethyl)cyclohex-1-en-1-yl]pyrazolo[1,5-a]pyridin-6-yl}pyrazole]
2140 nM | 4.76 |  | Cn1cc(-c2ccc3c(NCC(=O)Nc4ncc(Cc5ccccc5)cn4)cnn3c2)cn1 [Compound 244, N-(5-benzylpyrimidin-2-yl)-2-((6-(1-methyl-1H-pyrazol-4-yl)pyrazolo[1,5-a]pyridin-3-yl)amino) acetamide]
> 10000 nM | 5.22 |  | Cn1cc(-c2ccc3c(N4CCN(c5nc(Cc6ccccc6)ns5)CC4)cnn3c2)cn1 [Compound 245, 3-benzyl-5-(4-(6-(1-methyl-1H-pyrazol-4-yl)pyrazolo[1,5-a]pyridin-3-yl)piperazin-1-yl)-1,2,4-thiadiazole]
937 nM | 3.04 |  | Cn1cc(-c2ccc3c(N4CCN(c5ncc(C(N)c6ccc(F)cc6)cn5)CC4)cnn3c2)cn1 (centres unmarked) [Compound 246, 1-(4-fluorophenyl)-1-(2-{4-[6-(1-methyl-1H-pyrazol-4-yl)pyrazolo[1,5-a]pyridin-3-yl]piperazin-1-yl}pyrimidin-5-yl)methanamine]
> 10000 nM | 2.69 |  | COc1ccc2c(N3CCN(c4ncc(Cc5ccccc5)cn4)CC3)cnn2c1 [Compound 259, 3-[4-(5-benzylpyrimidin-2-yl)piperazin-1-yl]-6-methoxypyrazolo-[1,5-a]pyridine]
6180 nM | 3.05 |  | Cn1cc(-c2ccc3c(N4CCN(C(=O)OCc5ccccc5C(N)=O)CC4)cnn3c2)cn1 [Compound 280, 2-carbamoylbenzyl 4-(6-(1-methyl-1H-pyrazol-4-yl)pyrazolo[1,5-a]pyridin-3-yl)piperazine-1-carboxylate]
303 nM | 11.42 |  | Cn1cc(-c2ccc3c(N4CCN(C(=O)OCc5ccccc5C#N)CC4)cnn3c2)cn1 [Compound 281, 2-cyanobenzyl 4-(6-(1-methyl-1H-pyrazol-4-yl)pyrazolo[1,5-a]pyridin-3-yl)piperazine-1-carboxylate]

Source: US20250129067A1 (Progentos Therapeutics, Inc., priority 2021, published 2025)
